Reference: patent US20150238507A1, “BENZODIAZEPINES FOR TREATING SMALL CELL LUNG CANCER” (GlaxoSmithKline LLC, priority 2012, published 2015)
Like-named read-outs stand apart in the source and are kept apart here.

Experiments:
[1] = test system: NCI-H526 cell line xenograft; test: SCLC subcutaneous mouse xenograft model, efficacy and pharmacodynamics; format: in vivo; details: 25 mg/kg QD
[2] = test system: small cell lung cancer lines; test: 6 day proliferation (cell growth) assay, panel of 38 small cell lung cancer lines; format: cell-based; details: 6 day proliferation assay; for IC50: 144 h

CCNC(=O)C[C@@H]1N=C(c2ccc(Cl)cc2)c2cc(OC)ccc2-n2c(C)nnc21 [2-[(4S)-6-(4-chlorophenyl)-1-methyl-8-(methyloxy)-4H-[1,2,4]triazolo[4,3-a][1,4]benzodiazepin-4-yl]-N-ethylacetamide]
reduction of tumour growth ([1]; NCI-H526 subcutaneous mouse xenograft): 70% | p21 protein expression and caspase activation in tumour ([1]; NCI-H526 xenograft, antibody-based immunochemistry assay): induce p21 protein expression and caspase activation | IC50 ([2]; median of 38 small cell lung cancer lines, read-out: gIC50 (median over the panel)): 1460 nM | IC50 ([2]; panel of 38 small cell lung cancer lines, read-out: gIC50 (range over the panel)): 109 to 29300 nM | number of lines showing gIC50<10000 nM ([2]; of the 38 small cell lung cancer lines): 33
